The values below come from patent US20120010161A1, “NOVEL AZAPEPTIDE OR AZAPEPTIDOMIMETIC COMPOUNDS INHIBITING BCRP AND/OR P-GP” (CENTRE NATIONAL DE LA RECHERCHE SCIENTIFIQUE, priority 2009, published 2012).

Entries after “also recorded” stand apart in the source; their conditions may differ.

One series relates to NIH-3T3 cells. As to the kind of experiment: Cytotoxicity on cell growth, MTT test. The conditions noted are these: 72 hours. The format is cell-based. The protocol:
The cells are seeded (10 000 cells/well) in 96-well plates and incubated for 24 hours at 37° C. under 5% CO2. Varied concentrations of mitoxantrone (from 0 to 20 μM in a constant final volume of 100 μL) are then added with an equal volume of each of the test compounds. The cells are then left to divide for 72 hours. The cytotoxicity is evaluated colorimetrically with 3-(4,5-dimethylthiazol-2-yl)-2,5-diphenyltetrazolium bromide (MTT).
Increasing concentrations of compound (IB.1) are applied to NIH-3T3 cells expressing or not expressing ABCB1, and whose residual vitality is evaluated after 72 hours of treatment by an MTT test. The results are illustrated in FIG. 9, in which the cells expressing ABCB1 are represented by empty circles, and those not expressing it by solid circles. […] It increases by 30-40% thereafter, but however remains limited to this value, up to a concentration equivalent to 40 times its IC50, whether or not ABCB1 is expressed.

Another series relates to ABCG2. As to the kind of experiment: Estimation of the level of expression of ABCG2 (western blot). The format is cell-based, human. The conditions noted are these: 5 μM, 3 h to 72 h. The protocol:
Estimation of the level of expression of ABCG2. The cells HEK293 pcDNA3.1 or HEK293 pcDNA3.1 BCRP are seeded in sixteen 6 cm^2 Petri dishes and incubated for 24 hours at 37° C. under 5% CO2. After this incubation, the various wells are supplemented with 30 μL either of DMSO (controls) or of compound IA.2 dissolved in DMSO, corresponding to a final concentration after dilution of 5 μM. After 3 h, 24 h, 48 h or 72 h of incubation, the cells are trypsinized and centrifuged at 200 g for 5 minutes. The protein fraction is extracted with a hypotonic lysis buffer (10 mM Tris-Cl pH 7.5, 10 mM NaCl, 1 mM MgCl2, 1 mM DTT, protease inhibitors) and assayed with bicinchoninic acid (Sigma-Aldrich). Ten micrograms of this fraction are deposited on polyacrylamide gel of Laemmli type (U. K. Laemmli, Nature 1970, 227, 680) to separate the proteins, which are then transferred onto polyvinyl fluoride (pvdf) membrane for 60 minutes at 100 mA in a 10 mM CAPS pH 11.1 […] buffer, 10% methanol (Sigma-Aldrich). The pvdf membrane is then saturated for 30 minutes in a solution of powdered skimmed milk at 1% (w/v) in TBST buffer (Tris buffer saline 1×, Tween 20 0.1%). […] Revelation is performed using the “immobilon western” kit (Millipore) with the QuantityOne software (Biorad). […]

As for `CC(C)(C)OC(=O)N[C@H](CNN(CCCCCCNC(=O)OCc1ccccc1)C(=O)OC(C)(C)C)CC(=O)OCc1ccccc1` [IB.1, Benzyl ester of (3S)-4-[2-(6-benzyloxycarbonylaminohexyl)-2-tert-butoxycarbonylhydrazino]-3-tert-butoxycarbonylaminobutyric acid], in the series with NIH-3T3 cells (above 5 times and up to 40 times its IC50, expressing or not ABCB1), the “increase of cytotoxicity on NIH-3T3 cells” value is 30-40%. Also, the “harmlessness on NIH-3T3 cells” value with NIH-3T3 cells (cells expressing or not ABCB1) is listed as “harmlessness”. Also, the “cytotoxicity on NIH-3T3 cells” value in the series with NIH-3T3 cells (up to 5 times its IC50) was “negligible”.
Regarding `CC(C)(C)OC(=O)NN(C(=O)N[C@@H](CCCCNC(=O)OCc1ccccc1)C(=O)OC(C)(C)C)c1cccc(C(=O)OCc2ccccc2)c1` [IA.2, tert-Butyl ester of (2S)-6-(benzyloxycarbonylamino)-2-[1-(3′-(benzyloxycarbonyl)phenyl)-2-(tert-butoxycarbonyl)hydrazino-carbonylamino]hexanoic acid], the “level of expression of ABCG2” value in the series with ABCG2 (HEK293 BCRP cells, vs DMSO) is reported as “reduces the level of expression; also recorded: decrease in the level of expression”. In addition, the “level of expression of tubulin (control protein)” value in the series with ABCG2 (HEK293 cells) is listed as “without affecting”.
